Laboratory results published in PubChem BioAssay (NCI).
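In this assay, cells in 96-well plates receive the compound at five concentrations for 48 hours. Endpoints are linearly interpolated between the surrounding concentrations. TGI marks complete inhibition of growth.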

Columns and labels:
Assay in all cases: inhibition of tumour cell growth, NCI panel, 48 h
OVCAR-3 ovarian = test system: OVCAR-3 ovarian
KM20L2 colon = test system: KM20L2 colon
NCI-H460 lung = test system: NCI-H460 lung
SNB-78 CNS = test system: SNB-78 CNS
ACHN renal = test system: ACHN renal
OVCAR-8 ovarian = test system: OVCAR-8 ovarian
RXF-631 renal = test system: RXF-631 renal
UACC-62 melanoma = test system: UACC-62 melanoma
HCT-15 colon = test system: HCT-15 colon
SK-MEL-28 melanoma = test system: SK-MEL-28 melanoma
UO-31 renal = test system: UO-31 renal
SF-539 CNS = test system: SF-539 CNS
SK-MEL-5 melanoma = test system: SK-MEL-5 melanoma
MOLT-4 leukemia = test system: MOLT-4 leukemia
786-0 renal = test system: 786-0 renal
HOP-62 NSCLC = test system: HOP-62 NSCLC
U251 CNS = test system: U251 CNS
SN12C renal = test system: SN12C renal
XF 498 CNS = test system: XF 498 CNS
A498 renal = test system: A498 renal
K-562 leukemia = test system: K-562 leukemia
SW-620 colon = test system: SW-620 colon
COLO 205 colon = test system: COLO 205 colon
OVCAR-4 ovarian = test system: OVCAR-4 ovarian
CAKI-1 renal = test system: CAKI-1 renal
SK-OV-3 ovarian = test system: SK-OV-3 ovarian
LOX IMVI melanoma = test system: LOX IMVI melanoma
A549 NSCLC = test system: A549 NSCLC
TK-10 renal = test system: TK-10 renal
SF-295 CNS = test system: SF-295 CNS
SF-268 CNS = test system: SF-268 CNS
CCRF-CEM leukemia = test system: CCRF-CEM leukemia
M19-MEL melanoma = test system: M19-MEL melanoma
EKVX NSCLC = test system: EKVX NSCLC
DLD-1 colon = test system: DLD-1 colon
HCT-116 colon = test system: HCT-116 colon
M14 melanoma = test system: M14 melanoma
HOP-18 NSCLC = test system: HOP-18 NSCLC
DMS 114 small cell lung = test system: DMS 114 small cell lung
HL-60(TB) leukemia = test system: HL-60(TB) leukemia
DMS 273 small cell lung = test system: DMS 273 small cell lung
LXFL 529 NSCLC = test system: LXFL 529 NSCLC
NCI-H23 lung = test system: NCI-H23 lung
IGROV1 ovarian = test system: IGROV1 ovarian
SNB-75 CNS = test system: SNB-75 CNS
HT29 colon = test system: HT29 colon
SR leukemia = test system: SR leukemia
HOP-92 NSCLC = test system: HOP-92 NSCLC
UACC-257 melanoma = test system: UACC-257 melanoma
SK-MEL-2 melanoma = test system: SK-MEL-2 melanoma
KM12 colon = test system: KM12 colon
RPMI-8226 leukemia = test system: RPMI-8226 leukemia
HCC-2998 colon = test system: HCC-2998 colon
SNB-19 CNS = test system: SNB-19 CNS
RXF 393 renal = test system: RXF 393 renal
NCI-H226 lung = test system: NCI-H226 lung
MALME-3M melanoma = test system: MALME-3M melanoma
OVCAR-5 ovarian = test system: OVCAR-5 ovarian
NCI-H522 lung = test system: NCI-H522 lung

Cc1ccc(/C=C2\CCCCC2=O)cc1
TGI (OVCAR-3 ovarian): > 100 µM | TGI (KM20L2 colon): > 100 µM | TGI (NCI-H460 lung): > 100 µM | TGI (SNB-78 CNS): > 100 µM | TGI (ACHN renal): > 100 µM | TGI (OVCAR-8 ovarian): > 100 µM | TGI (RXF-631 renal): > 100 µM | TGI (UACC-62 melanoma): > 100 µM | TGI (HCT-15 colon): > 100 µM | TGI (SK-MEL-28 melanoma): > 100 µM | TGI (UO-31 renal): > 100 µM | TGI (SF-539 CNS): > 100 µM | TGI (SK-MEL-5 melanoma): > 100 µM | TGI (MOLT-4 leukemia): 45.4 µM | TGI (786-0 renal): > 100 µM | TGI (HOP-62 NSCLC): > 100 µM | TGI (U251 CNS): > 100 µM | TGI (SN12C renal): > 100 µM | TGI (XF 498 CNS): > 100 µM | TGI (A498 renal): > 100 µM | TGI (K-562 leukemia): 77.4 µM | TGI (SW-620 colon): > 100 µM | TGI (COLO 205 colon): > 100 µM | TGI (OVCAR-4 ovarian): > 100 µM | TGI (CAKI-1 renal): > 100 µM | TGI (SK-OV-3 ovarian): > 100 µM | TGI (LOX IMVI melanoma): > 100 µM | TGI (A549 NSCLC): > 100 µM | TGI (TK-10 renal): > 100 µM | TGI (SF-295 CNS): > 100 µM | TGI (SF-268 CNS): > 100 µM | TGI (CCRF-CEM leukemia): 88.8 µM | TGI (M19-MEL melanoma): > 100 µM | TGI (EKVX NSCLC): > 100 µM | TGI (DLD-1 colon): > 100 µM | TGI (HCT-116 colon): > 100 µM | TGI (M14 melanoma): > 100 µM | TGI (HOP-18 NSCLC): > 100 µM | TGI (DMS 114 small cell lung): > 100 µM | TGI (HL-60(TB) leukemia): 48.3 µM | TGI (DMS 273 small cell lung): > 100 µM | TGI (LXFL 529 NSCLC): > 100 µM | TGI (NCI-H23 lung): > 100 µM | TGI (IGROV1 ovarian): > 100 µM | TGI (SNB-75 CNS): > 100 µM | TGI (HT29 colon): > 100 µM

O=C1CCC2(O)c3ccccc3C2Cc2ccccc21 (configuration not stated)
TGI (SR leukemia): > 100 µM | TGI (OVCAR-3 ovarian): > 100 µM | TGI (KM20L2 colon): > 100 µM | TGI (NCI-H460 lung): > 100 µM | TGI (SNB-78 CNS): > 100 µM | TGI (ACHN renal): > 100 µM | TGI (OVCAR-8 ovarian): > 100 µM | TGI (UACC-62 melanoma): > 100 µM | TGI (SK-MEL-28 melanoma): > 100 µM | TGI (SF-539 CNS): > 100 µM | TGI (HOP-92 NSCLC): > 100 µM | TGI (MOLT-4 leukemia): > 100 µM | TGI (786-0 renal): > 100 µM | TGI (HOP-62 NSCLC): > 100 µM | TGI (UACC-257 melanoma): > 100 µM | TGI (SK-MEL-2 melanoma): > 100 µM | TGI (U251 CNS): > 100 µM | TGI (SN12C renal): > 100 µM | TGI (XF 498 CNS): > 100 µM | TGI (KM12 colon): > 100 µM | TGI (RPMI-8226 leukemia): > 100 µM | TGI (K-562 leukemia): > 100 µM | TGI (HCC-2998 colon): > 100 µM | TGI (SNB-19 CNS): > 100 µM | TGI (SW-620 colon): > 100 µM | TGI (COLO 205 colon): > 100 µM | TGI (RXF 393 renal): > 100 µM | TGI (NCI-H226 lung): > 100 µM | TGI (LOX IMVI melanoma): > 100 µM | TGI (MALME-3M melanoma): > 100 µM | TGI (TK-10 renal): > 100 µM | TGI (SF-295 CNS): > 100 µM | TGI (SF-268 CNS): > 100 µM | TGI (CCRF-CEM leukemia): > 100 µM | TGI (M19-MEL melanoma): > 100 µM | TGI (EKVX NSCLC): > 100 µM | TGI (DLD-1 colon): > 100 µM | TGI (HCT-116 colon): > 100 µM | TGI (HOP-18 NSCLC): > 100 µM | TGI (DMS 114 small cell lung): > 100 µM | TGI (HL-60(TB) leukemia): > 100 µM | TGI (DMS 273 small cell lung): > 100 µM | TGI (NCI-H23 lung): > 100 µM | TGI (IGROV1 ovarian): > 100 µM | TGI (SNB-75 CNS): > 100 µM | TGI (HT29 colon): > 100 µM

C=CC1=C(C)C(/C=c2\[nH]/c(=C/c3[nH]c(CC4NC(=O)C(C)/C4=C\C)c(C)c3CCC(=O)O)c(CC(=O)O)c2C)=NC1=O (configuration not stated)
TGI (SR leukemia): > 100 µM | TGI (OVCAR-3 ovarian): > 100 µM | TGI (KM20L2 colon): > 100 µM | TGI (NCI-H460 lung): > 100 µM | TGI (SNB-78 CNS): > 100 µM | TGI (ACHN renal): > 100 µM | TGI (OVCAR-8 ovarian): > 100 µM | TGI (RXF-631 renal): > 100 µM | TGI (UACC-62 melanoma): > 100 µM | TGI (HCT-15 colon): > 100 µM | TGI (SK-MEL-28 melanoma): > 100 µM | TGI (UO-31 renal): > 100 µM | TGI (SF-539 CNS): > 100 µM | TGI (HOP-92 NSCLC): > 100 µM | TGI (MOLT-4 leukemia): > 100 µM | TGI (786-0 renal): > 100 µM | TGI (HOP-62 NSCLC): > 100 µM | TGI (UACC-257 melanoma): > 100 µM | TGI (SK-MEL-2 melanoma): > 100 µM | TGI (U251 CNS): > 100 µM | TGI (SN12C renal): > 100 µM | TGI (XF 498 CNS): > 100 µM | TGI (KM12 colon): > 100 µM | TGI (K-562 leukemia): > 100 µM | TGI (HCC-2998 colon): > 100 µM | TGI (SNB-19 CNS): > 100 µM | TGI (SW-620 colon): > 100 µM | TGI (COLO 205 colon): > 100 µM | TGI (OVCAR-4 ovarian): > 100 µM | TGI (CAKI-1 renal): > 100 µM | TGI (RXF 393 renal): > 100 µM | TGI (SK-OV-3 ovarian): > 100 µM | TGI (NCI-H226 lung): > 100 µM | TGI (LOX IMVI melanoma): > 100 µM | TGI (MALME-3M melanoma): > 100 µM | TGI (OVCAR-5 ovarian): > 100 µM | TGI (A549 NSCLC): > 100 µM | TGI (TK-10 renal): > 100 µM | TGI (SF-295 CNS): > 100 µM | TGI (SF-268 CNS): > 100 µM | TGI (CCRF-CEM leukemia): > 100 µM | TGI (M19-MEL melanoma): > 100 µM | TGI (EKVX NSCLC): > 100 µM | TGI (DLD-1 colon): > 100 µM | TGI (HCT-116 colon): > 100 µM | TGI (M14 melanoma): > 100 µM | TGI (HOP-18 NSCLC): > 100 µM | TGI (DMS 114 small cell lung): > 100 µM | TGI (HL-60(TB) leukemia): > 100 µM | TGI (NCI-H522 lung): > 100 µM | TGI (LXFL 529 NSCLC): > 100 µM | TGI (NCI-H23 lung): > 100 µM | TGI (IGROV1 ovarian): > 100 µM | TGI (SNB-75 CNS): > 100 µM | TGI (HT29 colon): > 100 µM
